Values quoted from earlier work as cited in patent US20110212189A1, “GASTRORETENTIVE ORAL HIGH DOSE ZINC PREPARATIONS” (ADEONA PHARMACEUTICALS, INC., priority 2009, published 2011).

Details: 50 mg elemental zinc taken with food

O=S(=O)([O-])[O-].[Zn+2] [zinc sulphate]
nausea/vomiting effects: same effects have been observed
